Molecules are shown by their SMILES. The source made the active and inactive calls. The calls are words filed in the database; no cut-off is given here.

Experiment [1] concerns the target T1, Estrogen receptor (Homo sapiens) (UniProt P03372).
T1 sequence (whole entry): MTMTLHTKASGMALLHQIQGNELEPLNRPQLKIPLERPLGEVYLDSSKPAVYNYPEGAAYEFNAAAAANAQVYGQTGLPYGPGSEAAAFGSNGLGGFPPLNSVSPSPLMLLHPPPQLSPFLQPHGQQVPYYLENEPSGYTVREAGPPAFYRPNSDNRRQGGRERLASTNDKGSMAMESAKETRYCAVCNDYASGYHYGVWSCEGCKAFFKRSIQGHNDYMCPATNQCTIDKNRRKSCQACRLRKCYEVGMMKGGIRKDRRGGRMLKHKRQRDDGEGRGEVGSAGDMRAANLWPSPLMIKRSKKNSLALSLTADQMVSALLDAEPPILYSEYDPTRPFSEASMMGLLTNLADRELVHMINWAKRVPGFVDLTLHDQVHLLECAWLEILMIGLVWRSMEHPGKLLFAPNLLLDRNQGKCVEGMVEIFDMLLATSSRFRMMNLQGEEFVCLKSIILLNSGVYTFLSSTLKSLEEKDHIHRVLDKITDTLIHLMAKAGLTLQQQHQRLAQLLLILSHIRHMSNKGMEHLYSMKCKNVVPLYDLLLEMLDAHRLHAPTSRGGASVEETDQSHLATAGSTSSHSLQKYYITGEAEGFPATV
Nature of the experiment: Down regulation of ERalpha in human MCF7 cells after 6 hrs in presence of 10 uM proteasome inhibitor MG132 by Western blot analysis. It is filed as cell-based.

Experiment [2] has as its target T1, Estrogen receptor (Homo sapiens). Nature of the experiment: Down regulation of ERalpha in human MCF7 cells at 10 uM after 6 hrs by Western blot analysis in absence of MG132.
The target of experiment [3] is T2, Estrogen receptor (Homo sapiens, UniProt P03372).
T2 sequence (P03372 whole entry): T1 sequence (whole entry)
The experiment is described as follows: Antagonist activity at ERalpha (unknown origin) transfected in 17beta-estradiol induced-HEK293 cells assessed as inhibition of estradiol-mediated protein transcriptional activity after 16 to 20 hrs by Luciferase reporter gene assay.

Experiment [4] concerns the target T2, Estrogen receptor. The experiment is described as follows: Displacement of Fluormone ES2 from human recombinant full length untagged-ERalpha by fluorescence polarization competition binding assay.

Regarding `CCCCCCCCCCNCCOc1ccc(C(=O)c2c(-c3ccc(O)cc3)sc3cc(O)ccc23)cc1`, in experiment [1], the result was inactive. Also, the Activity result in experiment [2] is “Dose-dependent effect”. Also, the IC50 came out at 0.68 nM at Estrogen receptor [3] and 40 nM at Estrogen receptor [4]. For `CCCCCCNCCOc1ccc(C(=O)c2c(-c3ccc(O)cc3)sc3cc(O)ccc23)cc1`, the IC50 on Estrogen receptor [4] was determined as 61 nM. Still for that read-out and setting: the same measure for `CCCCCCCCCCCCCCCCNCCOc1ccc(C(=O)c2c(-c3ccc(O)cc3)sc3cc(O)ccc23)cc1`: 11 nM. Same read-out and setting: the result for `CCCCCCCCCCCCCCNCCOc1ccc(C(=O)c2c(-c3ccc(O)cc3)sc3cc(O)ccc23)cc1` reads 28 nM; that for `CCCCCCCCCCCCCCCCCCNCCOc1ccc(C(=O)c2c(-c3ccc(O)cc3)sc3cc(O)ccc23)cc1`, 1.8 nM.

Turning to `CCCCCCCCNCCOc1ccc(C(=O)c2c(-c3ccc(O)cc3)sc3cc(O)ccc23)cc1`, the IC50 at Estrogen receptor [4] worked out at 49 nM. In the case of `CCCCCCCCCCCCNCCOc1ccc(C(=O)c2c(-c3ccc(O)cc3)sc3cc(O)ccc23)cc1`, the result in experiment [1] was inactive. Also, the Activity result in experiment [2] is “Dose-dependent effect”. The IC50 on Estrogen receptor [3] was found to be 0.09 nM; on Estrogen receptor [4], 5.9 nM.
